Results reported in EP0394868A1, “New antibiotics NK372135, process for the production thereof and use thereof” (Nippon Kayaku Kabushiki Kaisha, priority 1989, dated 1990).
Values after ≈ are worked out from the molar mass of the structure shown.

Tests used:
Type in all cases: cell-based
[1] = test system: Candida albicans; experiment: Anti-Candida activity, growth in bouillon medium (absorbance at 595 nm); settings: Candida albicans 2 x 10³ cell/well, 30°C for 16 hours
Description: The anti-Candida activity of NK372135B was compared with that of methoxy-xanthocillin X dimethyl ether which is shown in The Journal of Antibiotics Vol 34 (1981) No. 12, P1556 ∼ 1561.
Candida albicans was inoculated into a 96-well plate at a density of 2 x 10³ cell/well with the use of 0.2 cc of a bouillon medium. Then a test compound of various concentrations was added thereto and the microorganism was incubated at 30°C for 16 hours. Then the absorbance of each well at 595 nm was measured and IC₅₀ was calculated from the dose response curve. […] Thus it was found out that the saturation of the double bond in methoxy-xanthocillin X dimethyl ether enhanced the anti-Candida activity.

[2] = target: T1, 5-lipoxygenase (Cavia porcellus, UniProt A0A286X958); experiment: 5-lipoxygenase inhibitory activity in ionophore-stimulated peritoneal cells (5-HETE by HPLC); settings: Guinea pig peritoneal cells, ionophore A 23187 + arachidonic acid
T1 construct: the peritoneal cells of the animals were collected; endogenous in cells; host or cells: casein-elicited peritoneal cells of Hartley guinea pigs
T1 sequence (A0A286X958 1-674): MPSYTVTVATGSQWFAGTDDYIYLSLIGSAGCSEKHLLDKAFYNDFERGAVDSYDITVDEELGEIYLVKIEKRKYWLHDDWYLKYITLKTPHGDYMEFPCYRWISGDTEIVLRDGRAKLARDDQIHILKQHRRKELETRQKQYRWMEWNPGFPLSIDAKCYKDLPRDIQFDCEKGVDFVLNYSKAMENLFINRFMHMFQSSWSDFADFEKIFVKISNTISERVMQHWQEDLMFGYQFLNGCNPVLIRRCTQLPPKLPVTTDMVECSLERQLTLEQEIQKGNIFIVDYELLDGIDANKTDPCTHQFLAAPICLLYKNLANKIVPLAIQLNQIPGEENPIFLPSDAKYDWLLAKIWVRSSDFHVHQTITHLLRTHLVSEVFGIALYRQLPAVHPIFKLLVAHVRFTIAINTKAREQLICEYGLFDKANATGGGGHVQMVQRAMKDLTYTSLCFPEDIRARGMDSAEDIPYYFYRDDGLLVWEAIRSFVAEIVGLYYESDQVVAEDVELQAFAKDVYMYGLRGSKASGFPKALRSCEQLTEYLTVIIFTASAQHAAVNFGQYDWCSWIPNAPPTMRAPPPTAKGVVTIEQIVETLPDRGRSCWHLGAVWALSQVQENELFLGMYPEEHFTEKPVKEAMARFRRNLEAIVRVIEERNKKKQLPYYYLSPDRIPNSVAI
Description: The 5-lipoxygenase inhibitory activities of the compounds of the present invention were examined.
The 5-lipoxygenase inhibitory activity was evaluated from the inhibitory activity on ionophore stimulation on Guinea pig peritoneal cells in the following manner.
A 2% casein solution was intraperitoneally administered to Hartley Guinea pigs weighing 250 to 350 g. 18 hours after the administration, the peritoneal cells of the animals were collected. The contaminating erythrocytes were hemolyzed and centrifuged. To the cell fraction thus obtained was added a 50 mM phosphate buffer solution (pH 7.0) containing […] of indomethacin and the concentration of the peritoneal cells was adjusted to 1 x 10⁷ cell/-ml. To 1.0 ml of the cell suspension thus obtained, a test compound of various concentrations was added so as to give a final concentration of 100 µM. Then the mixture was incubated at 37°C for five minutes. Next, 1.0 µg of lonophore A 23187 and 10 µg of arachidonic acid were added thereto and the reaction was initiated. After 20 minutes, the reaction was ceased by adding 4 ml of ethanol. The reaction supernatant was analyzed by HPLC in accordance with the method of Amano et al. [Vitamin, 59, 211 - 219 (1985)] so as to detect 5-hydroxyeicosatetraenoic acid (5-HETE) which was a metabolite derived from arachidonic acid.

[3] = test system: Li-7; experiment: Cytotoxicity, growth inhibition by methylene blue method; settings: RPMI 1640, 10% fetal calf serum, two to four days with compound; for IC50: 96 h, read-out: Cytotoxicity IC₅₀
Description: (§1) The cytotoxicities of NK372135A, B and C and methoxy-xanthocillin monomethyl ether (XTM) which is an analog thereof were examined. 2,000 cells of each of G361, SW1116, PC-3 and Li-7 cell strains were inoculated into a 96-well plate and incubated at 37°C under 5% CO₂ for 24 hours. An RPMI 1640 medium containing 10% of fetal calf serum was employed as a medium. After incubating for 24 hours, a test compound of a given concentration was added thereto and the incubation was further conducted for two to four days. Subsequently, the cells were counted by the methylene blue method so as to evaluate the extent of the growth inhibition.

[4] = test system: G361; experiment: as above; settings: Homo sapiens, G-361, 96 h, RPMI 1640, 10% fetal calf serum, two to four days with compound, read-out: Cytotoxicity IC₅₀
Description: as §1

[5] = test system: PC-3; experiment: as above; settings: Homo sapiens, 96 h, RPMI 1640, 10% fetal calf serum, two to four days with compound, read-out: Cytotoxicity IC₅₀
Description: as §1

[6] = test system: SW1116; experiment: as above; settings: Homo sapiens, SW 1116, 96 h, RPMI 1640, 10% fetal calf serum, two to four days with compound, read-out: Cytotoxicity IC₅₀
Description: as §1

[7] = test system: Aspergillus oryzae; experiment: Antimicrobial spectrum, paper disc agar diffusion; settings: 8 mm paper disc, 100 µg/ml solution, 25°C for a day and night, read-out: Diameter of inhibition zone (mm)
Description: (§2) The antimicrobial spectra of the compounds of the present invention were examined.
(§3) Table 1 gives the antimicrobial spectra of NK372135A, C and D. A paper disc of 8 mm in diameter was immersed in a solution containing 100 µg/ml of NK372135A, C or D and then placed on an agar medium in which a test strain had been grown. Regarding the four strains listed in the upper part of Table 1 and Candida albicans, each culture was conducted at 37°C for a day and night, while other strains were cultured at 25°C for a day and night. Then the diameter of each inhibition zone thus formed was measured. […] Since no existing antifungal agent exerts a satisfactory effect on fungi, the compounds of the present invention are highly expected as effective antifungal agents.

[8] = test system: Bacillus subtilis; experiment: Antimicrobial spectrum, paper disc agar diffusion; settings: 8 mm paper disc, 100 µg/ml solution, 37°C for a day and night, read-out: Diameter of inhibition zone (mm)
Description: as §2, §3

[9] = test system: Candida albicans; experiment: Antimicrobial spectrum, paper disc agar diffusion; settings: 8 mm paper disc, 100 µg/ml solution, 37°C for a day and night, read-out: Diameter of inhibition zone (mm)
Description: as §2, §3

[10] = test system: Botrytis fabae; experiment: Antimicrobial spectrum, paper disc agar diffusion; settings: 8 mm paper disc, 100 µg/ml solution, 25°C for a day and night, read-out: Diameter of inhibition zone (mm)
Description: as §2, §3

[11] = test system: Saccharomyces cerevisiae; experiment: Antimicrobial spectrum, paper disc agar diffusion; settings: 8 mm paper disc, 100 µg/ml solution, 25°C for a day and night, read-out: Diameter of inhibition zone (mm)
Description: as §2, §3

[12] = test system: Mucor japonicus; experiment: Antimicrobial spectrum, paper disc agar diffusion; settings: 8 mm paper disc, 100 µg/ml solution, 25°C for a day and night, read-out: Diameter of inhibition zone (mm)
Description: as §2, §3

[13] = test system: Escherichia coli; experiment: Antimicrobial spectrum, paper disc agar diffusion; settings: 8 mm paper disc, 100 µg/ml solution, 37°C for a day and night, read-out: Diameter of inhibition zone (mm)
Description: as §2, §3

[14] = test system: Staphylococcus aureus; experiment: Antimicrobial spectrum, paper disc agar diffusion; settings: 8 mm paper disc, 100 µg/ml solution, 37°C for a day and night, read-out: Diameter of inhibition zone (mm)
Description: as §2, §3

[15] = test system: Fusarium roseum; experiment: Antimicrobial spectrum, paper disc agar diffusion; settings: Fusarium sambucinum, read-out: Diameter of inhibition zone (mm)
Description: as §2, §3

[16] = test system: Mycosphaerella melonis; experiment: Antimicrobial spectrum, paper disc agar diffusion; settings: 8 mm paper disc, 100 µg/ml solution, 25°C for a day and night, read-out: Diameter of inhibition zone (mm)
Description: as §2, §3

[17] = test system: Trichophyton mentagrophytes; experiment: Antimicrobial spectrum, paper disc agar diffusion; settings: 8 mm paper disc, 100 µg/ml solution, 25°C for a day and night, read-out: Diameter of inhibition zone (mm)
Description: as §2, §3

[18] = test system: Mycobacterium smegmatis; experiment: Antimicrobial spectrum, paper disc agar diffusion; settings: Mycolicibacterium smegmatis, 8 mm paper disc, 100 µg/ml solution, 37°C for a day and night, read-out: Diameter of inhibition zone (mm)
Description: as §2, §3

Molecule	Inhibition ratio (%) ([2]; 10⁻⁴ mol/ℓ)	Inhibition ratio (%) ([2]; 10⁻⁵ mol/ℓ)	Inhibition ratio (%) ([2]; 10⁻⁶ mol/ℓ)	IC50 [3] [µg/mL]	IC50 [4] [µg/mL]	IC50 [5] [µg/mL]	IC50 [6] [µg/mL]	zone of inhibition at 100 µg/mL [7] [mm]	zone of inhibition at 100 µg/mL [8] [mm]	zone of inhibition at 100 µg/mL [9] [mm]	zone of inhibition at 100 µg/mL [10] [mm]	zone of inhibition at 100 µg/mL [11] [mm]	zone of inhibition at 100 µg/mL [12] [mm]	zone of inhibition at 100 µg/mL [13] [mm]	zone of inhibition at 100 µg/mL [14] [mm]	zone of inhibition at 100 µg/mL [15] [mm]	zone of inhibition at 100 µg/mL [16] [mm]	zone of inhibition at 100 µg/mL [17] [mm]	also measured
[C-]#[N+]C(=Cc1ccc(OC)c(OC)c1)C(Cc1ccc(OC)cc1)[N+]#[C-] (centres unmarked) [NK372135B]	33.3	5.0	0	1.8 (≈ 5.17 µM)	2.4 (≈ 6.89 µM)	0.76 (≈ 2.18 µM)	2.55 (≈ 7.32 µM)	–	–	–	–	–	–	–	–	–	–	–	IC50 ([1]; read-out: IC₅₀): 1.5 µg/mL (≈ 4.31 µM)
[C-]#[N+]C(=Cc1ccc(OC)c(O)c1)C(Cc1ccc(OC)cc1)[N+]#[C-] (centres unmarked) [NK372135C]	100	25.5	12.9	1.7 (≈ 5.08 µM)	2.52 (≈ 7.54 µM)	1.23 (≈ 3.68 µM)	5.89 (≈ 17.6 µM)	21	28	25	25	25	17	29	26	12	19	30	–
[C-]#[N+]C(=C\c1ccc(OC)cc1)/C(=C/c1ccc(OC)c(OC)c1)[N+]#[C-] [methoxy-xanthocillin X dimethyl ether, reference compound]	–	–	–	–	–	–	–	–	–	–	–	–	–	–	–	–	–	–	IC₅₀ [1]: 9.0 µg/mL
methoxy-xanthocillin monomethyl ether [XTM, reference compound]	–	–	–	–	–	–	–	–	–	–	–	–	–	–	–	–	–	–	Cytotoxicity IC₅₀ [3]: 0.57 µg/mL
[C-]#[N+]C(=Cc1ccc(OC)cc1)C(Cc1ccc(OC)cc1)[N+]#[C-] (centres unmarked) [NK372135A]	37.1	5.0	0	1.45 (≈ 4.55 µM)	2.13 (≈ 6.69 µM)	1.05 (≈ 3.3 µM)	1.65 (≈ 5.18 µM)	20	21.5	30	25	25	15	20	20.5	9	18	30	zone of inhibition at 100 µg/mL [18]: 21 mm
